Reference: patent publication US20130004477A1, “Methods for Treating Inflammation and Oxidative Stress Related Diseases” (priority 2009, published 2013)
Like-named read-outs stand apart in the source and are kept apart here.

Legend:
healthy volunteers = settings: Phase 1 single-dose; cited from earlier work
MPO = MPO (Homo sapiens, UniProt P05164); settings: 1 U/ml MPO, 100 mM Cl^−, 5 minutes
Method: Reaction mixtures contained MPO (1 U/ml), NaCl (100 mM), NaSCN (0-400 μM), and sodium phosphate (100 mM, pH 7.0). Reactions were initiated by adding 50 μM H2O2 to the mixture, and stopped 5 minutes later by adding 1 μM catalase to decompose remaining H2O2 to H2O and O2. Blank reactions contained no H2O2. The concentrations of OCl^− and OSCN^−were determined using the taurine chloramine assay. OCl^− and OSCN^− react with taurine to form taurine chloramine. The latter oxidizes yellow 5-thio-2-nitrobenzoic acid (ε412=14,100 M^−1 cm^−1) to colorless 5,5′-dithiobis-2-nitrobenzoic acid. The drop in absorbance at 412 nm (after subtracting the blank) reflects the total concentration of OCl^− plus OSCN^− produced. […] Methionine was added immediately after the addition of catalase but 5 minutes before the taurine chloramine assay. This five minute interval allowed methionine to reduce OCl^−. Unless specified otherwise, all reagents were purchased from Sigma-Aldrich.

CF mice = tested on: CF mice
Method: Mouse pups, weaned at day ˜28, had access to drinking water and solid mouse food. […] All pictures were taken at the same magnification (20× objective). […] In panels C and F, the green, yellow and black arrows point to a villus, a goblet cell and a mucus plug, respectively.
The body length (A) and weight (B) (mean±s.e.m.) of CF and heterozygous mice were determined 30, 60, and 90 days after weaning
FIGS. 7B-G, show standard Alcian Blue-stained (5 μm-thick) sections of large (FIG. 7B-D) and small (FIG. 7E-G) intestines (Alcian Blue specifically stains mucin; http://www.protocol-online.org).
Mouse pups, weaned at day ˜28, had access to drinking water and solid mouse food. […] In FIGS. 7C and 7F, the green, yellow and black arrows point to a villus, a goblet cell and a mucus plug, respectively.
The body length (A) and weight (B) (mean±s.e.m.) of CF and heterozygous mice were determined 30, 60, and 90 days after.

Calu-3 cells = assay: Cell viability assay: H2O2 cytotoxicity in Calu-3 cells; format: cell-based, human; settings: SCN^− alone, GO 20 mU/ml
Method: (§1) (the number of independent trials is indicated in parentheses).
(§2) Four types of cell, Calu-3, Min6 (58), Neuro-2A, and HAEC (Invitrogen Inc.) were plated in 48-well culture plates (3.5×10^4 to 2×10^5 per well). Twenty-four to forty-eight hours later, cells were washed with Earl's balanced salt solution (EBSS) before subsequent studies. EBSS contained: NaCl (116 mM), glucose (5.5 mM), KCl (5.4 mM), CaCl2 (1.8 mM), MgSO4 (2.2 mM), NaH2PO4 (1 mM), and NaHCO3 (26 mM); pH 7.0. […] LPO (1 U/ml) and NaSCN (100 or 400 μM) were added to protect cells from injuries caused by H2O2. For the MPO studies, cells were first incubated for one hour in EBSS containing MPO (1 U/ml). The MPO reaction was initiated by adding 10 mU/ml GO to generate H2O2, and cells were maintained in a 37° C. incubator (5% CO2) for three additional hours. […] After incubation, cells were trypsinized, pelleted, and resuspended in a phosphate buffer solution (PBS), which contains NaCl (137 mM), KCl (2.7 mM), Na2HPO4 (4.3 mM) and KH2PO4 (1.4 mM); pH 7.3. Non-viable cells were identified by staining with 0.2% Trypan blue (Invitrogen, Inc.). Both stained and unstained cells were counted with a hemocytometer in double blind experiments.

[1] = non-enzymatic reaction; cited from earlier work
[2] = tested on: human aortic endothelial cells (HAEC); settings: 400 μM SCN^−; GO 5 mU/ml, MPO 1 U/ml
Method: as §1, §2

Min6 cells = settings: 400 μM SCN^−; GO 10 mU/ml, MPO 1 U/ml
Method: as §1, §2

Neuro-2A cells = settings: GO 10 mU/ml, MPO 1 U/ml
Method: as §1, §2

CFTR = molecular target: T1, CFTR (Homo sapiens, UniProt P13569, G551D); settings: CF patients with at least one copy of the G551D mutation; Phase II; cited from earlier work
T1 construct: endogenous in cells; host or cells: CF patients (nasal epithelium, sweat glands, lungs)
T1 sequence (P13569 whole entry G551D): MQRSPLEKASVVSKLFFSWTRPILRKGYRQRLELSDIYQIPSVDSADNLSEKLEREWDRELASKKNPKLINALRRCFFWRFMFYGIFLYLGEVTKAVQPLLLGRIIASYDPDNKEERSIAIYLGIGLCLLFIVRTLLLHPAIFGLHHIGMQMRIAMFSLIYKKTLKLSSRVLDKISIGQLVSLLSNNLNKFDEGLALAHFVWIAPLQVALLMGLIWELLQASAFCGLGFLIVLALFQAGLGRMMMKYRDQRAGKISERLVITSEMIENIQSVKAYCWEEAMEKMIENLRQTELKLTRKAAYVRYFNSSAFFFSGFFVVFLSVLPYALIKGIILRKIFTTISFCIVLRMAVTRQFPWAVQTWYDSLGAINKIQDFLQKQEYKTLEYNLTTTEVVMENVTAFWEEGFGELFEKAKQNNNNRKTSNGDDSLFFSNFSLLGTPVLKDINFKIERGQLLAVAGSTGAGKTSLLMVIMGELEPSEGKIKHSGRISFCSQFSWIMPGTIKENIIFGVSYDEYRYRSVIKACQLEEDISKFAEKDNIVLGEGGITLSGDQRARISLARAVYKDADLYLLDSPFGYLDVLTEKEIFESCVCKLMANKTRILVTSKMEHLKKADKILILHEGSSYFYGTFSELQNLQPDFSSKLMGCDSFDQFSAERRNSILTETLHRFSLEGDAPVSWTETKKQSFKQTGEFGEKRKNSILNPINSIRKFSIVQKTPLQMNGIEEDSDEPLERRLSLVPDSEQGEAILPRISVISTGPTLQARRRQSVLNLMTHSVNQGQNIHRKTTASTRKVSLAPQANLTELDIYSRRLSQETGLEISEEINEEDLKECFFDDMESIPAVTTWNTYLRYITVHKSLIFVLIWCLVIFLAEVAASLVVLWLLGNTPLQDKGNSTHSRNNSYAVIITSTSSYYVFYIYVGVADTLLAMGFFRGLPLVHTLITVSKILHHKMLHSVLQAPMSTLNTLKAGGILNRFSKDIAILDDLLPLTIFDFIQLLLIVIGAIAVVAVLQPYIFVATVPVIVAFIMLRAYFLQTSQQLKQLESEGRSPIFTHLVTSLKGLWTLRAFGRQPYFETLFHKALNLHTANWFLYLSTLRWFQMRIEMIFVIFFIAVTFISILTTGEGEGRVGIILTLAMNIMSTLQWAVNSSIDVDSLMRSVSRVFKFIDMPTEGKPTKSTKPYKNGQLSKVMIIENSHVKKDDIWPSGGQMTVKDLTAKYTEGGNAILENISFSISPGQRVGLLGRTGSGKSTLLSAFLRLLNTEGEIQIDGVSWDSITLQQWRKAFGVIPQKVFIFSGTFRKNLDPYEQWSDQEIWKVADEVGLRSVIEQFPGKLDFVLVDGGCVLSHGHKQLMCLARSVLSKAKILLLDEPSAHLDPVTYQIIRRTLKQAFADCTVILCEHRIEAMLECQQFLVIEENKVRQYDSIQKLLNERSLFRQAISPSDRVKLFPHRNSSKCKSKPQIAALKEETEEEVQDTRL

CF patients = settings: high doses; cited from earlier work
[3] = single dose of thiocyanate (1 mM)
[4] = 1 mM thiocyanate in drinking water, 30, 60, 90 days after weaning

MPO, sequence (P05164 49-745, species assumed): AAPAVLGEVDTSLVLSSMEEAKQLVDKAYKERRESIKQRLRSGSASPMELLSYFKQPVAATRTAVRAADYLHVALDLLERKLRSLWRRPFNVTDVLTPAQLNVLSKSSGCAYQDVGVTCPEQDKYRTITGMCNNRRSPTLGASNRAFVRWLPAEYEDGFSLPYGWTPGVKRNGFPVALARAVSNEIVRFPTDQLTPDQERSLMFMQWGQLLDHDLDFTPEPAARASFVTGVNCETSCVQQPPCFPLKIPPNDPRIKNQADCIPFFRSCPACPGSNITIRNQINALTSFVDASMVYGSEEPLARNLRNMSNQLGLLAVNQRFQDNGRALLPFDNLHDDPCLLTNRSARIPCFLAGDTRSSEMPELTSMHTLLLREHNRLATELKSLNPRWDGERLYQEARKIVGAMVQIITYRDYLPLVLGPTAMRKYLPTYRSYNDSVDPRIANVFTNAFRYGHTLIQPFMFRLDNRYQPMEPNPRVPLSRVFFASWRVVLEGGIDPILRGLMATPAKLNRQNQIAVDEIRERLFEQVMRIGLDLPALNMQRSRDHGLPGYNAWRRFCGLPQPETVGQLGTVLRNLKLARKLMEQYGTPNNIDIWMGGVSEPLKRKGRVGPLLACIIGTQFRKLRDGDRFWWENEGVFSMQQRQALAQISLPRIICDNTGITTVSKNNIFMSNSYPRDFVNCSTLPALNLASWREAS

SMILES: O=C(O)c1cccc(-c2noc(-c3ccccc3F)n2)c1 [Ataluren]
- safety, oral availability and tolerability (healthy volunteers): safe, orally available and well tolerated

SMILES: N#CS [SCN^−, thiocyanate]
- protection for CF piglets (CF piglets; given to pig mothers during pregnancy and to piglets after birth, up to 20 mg/kg daily, with or without iodine): improved protection
- effect on meconium in CF piglets (CF piglets; [3]): loosening meconium
- survival of CF piglets (CF piglets; [3]): does not survive them
- inhibition of MPO-catalyzed production of OCl^− (MPO; 10 μM SCN^−): inhibited only slightly, if at all
- inhibition of MPO-catalyzed production of OCl^− (MPO; 50 μM SCN^−): partially inhibited
- production of OSCN^− and OCl^− with increasing SCN^− concentration (MPO): boosted the production of OSCN^− but depressed that of OCl^−
- inhibition of MPO-catalyzed production of OCl^− (MPO; 100-400 μM SCN^−): inhibited almost completely
- CF mice survived beyond 90 days (CF mice; 1 mM thiocyanate in drinking water (mothers before weaning, pups after weaning)): 10 of the 15
- body length of CF mice (CF mice; [4]): normalizes
- body weight of CF mice (CF mice; [4]): normalizes
- survival of CF mice (CF mice; oral thiocyanate, 1 mM in drinking water): prolongs the survival
- protection against H2O2 cell injury (Calu-3 cells; 100 μM): Neither SCN^− (100 or 400 μM), nor LPO (1 U/ml) alone provided any significant protection
- protection against H2O2 cell injury (Calu-3 cells; 400 μM): Neither SCN^− (100 or 400 μM), nor LPO (1 U/ml) alone provided any significant protection
- second-order rate constant of oxidation by OCl^− to OSCN^− [1]: 2.3e+07 M⁻¹ s⁻¹
- protection against MPO activity [2]: virtually fully protected
- protection against MPO activity (Min6 cells): virtually fully protected
- protection against MPO activity (Neuro-2A cells; 100 μM SCN^−): virtually fully protected
- protection against MPO activity (Neuro-2A cells; 400 μM SCN^−): virtually fully protected

SMILES: CC(C)(C)c1cc(C(C)(C)C)c(NC(=O)c2c[nH]c3ccccc3c2=O)cc1O [VX-770]
- biological measures of CFTR function (nasal potential difference and sweat chloride) (CFTR): improvements
- clinical measures of pulmonary health (FEV1) (CFTR): improvements

SMILES: CC(C)Cc1ccc(C(C)C(=O)O)cc1 (stereo not shown) [ibuprofen]
- CF disease progression (CF patients): slow disease progression
